Molecular target: T1, OfurPBP2 (Ostrinia furnacalis pheromone binding protein 2) (Ostrinia furnacalis, UniProt E7CCA0)
T1 construct: gene PBP2; full-length OfurPBP2, recombinant soluble (E. coli Origami 2), delipidated, pH 6.5
T1 sequence (E7CCA0 23-166): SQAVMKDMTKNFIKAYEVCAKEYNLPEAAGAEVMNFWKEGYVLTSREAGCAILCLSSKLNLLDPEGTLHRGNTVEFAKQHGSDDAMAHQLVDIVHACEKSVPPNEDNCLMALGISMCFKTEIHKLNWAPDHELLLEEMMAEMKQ
Assay: fluorescence titration of the NPN probe (emission at […] nm), single-site fit

SMILES: c1ccc(Nc2cccc3ccccc23)cc1 [N-phenyl-1-naphthylamine]
- Kd: 6.49 ± 1.01 µM

Reference: article PMC6244159, “Structure and Function Studies of Asian Corn Borer Ostrinia furnacalis Pheromone Binding Protein2” (Scientific Reports, 2018)
